Here are results for 11 molecules from US12122728B2, “Use of substituted 2-thiazolines as nitrification inhibitors” (BASF SE, priority 2018, dated 2024).

For the assay, the system named is nitrification. The experiment in a line: Inhibition of nitrification in soil incubation test (ammonium and nitrate content after 14 days). The note with it: 100 g soil, 10 mg ammoniumsulfate-N, 20° C., 0 and 14 days; for NI* @ 0.3%: compound at 0.3% of nitrogen N; for NI* @ 1%: compound at 1% of nitrogen N; for NI* @ 3%: compound at 3% (of nitrogen N). As to the method: The compounds of the invention have been tested as follows in terms of the inhibition of nitrification:
100 g soil is filled into 500 ml plastic bottles (e.g. soil sampled from the field) and is moistened to 50% water holding capacity. The soil is incubated at 20° C. for two weeks to activate the microbial biomass. 1 ml test solution, containing the compound in the appropriate concentration (usually 0.3 or 1% of nitrogen N), or DMSO and 10 mg nitrogen in the form of ammoniumsulfate-N is added to the soil and everything mixed well. Bottles are capped but loosely to allow air exchange. The bottles are then incubated at 20° C. for 0 and 14 days.
For analysis, 300 ml of a 1% K2SO4-solution is added to the bottle containing the soil and shaken for 2 hours in a horizontal shaker at 150 rpm. Then the whole solution is filtered through a filter (Macherey-Nagel Filter MN 807%). Ammonium and nitrate content is then analyzed in the filtrate in an autoanalyzer at 550 nm (Merck, AA11).
The inhibition (NI® a specified concentration) is calculated as follows: […]

Structures are written as SMILES.

For the molecule `CSC1=NCCS1` [Cmpd 1, 2-(Methylthio)-2-thiazoline], the “NI* @ 0.3%” value is given as 60.1, the “NI* @ 1%” value was 90.2 and the “NI* @ 3%” value worked out at 88. On to `CC#CSC1=NCCS1` [Cmpd 2, 2-(Propynylthio)-2-thiazoline], for which the “NI* @ 3%” value is given as 76.3. Turning to `SC1=NCCS1` [Cmpd 3, 2-Mercapto-2-thiazoline], the “NI* @ 1%” value turned out to be 47 and the “NI* @ 3%” value is 83.5.

On to `CC1(C)CSC(S)=N1` [Cmpd 4, 4,4-Dimethyl-2-mercaptothiazoline], for which the “NI* @ 3%” value was found to be 57.5. Still for that read-out and setting: to `O=C(Nc1ccccc1)SC1=NCCS1` [Cmpd 5, 2-(Phenylaminocarbonylthio)-2-thiazoline] belongs 55.

On to `Br.O=C(CSC1=NCCS1)c1ccccc1` [Cmpd 6, 2-(2-Thiazolin-2-ylthio)-acetophenone, hydrobromide], for which the “NI* @ 0.3%” value amounted to 21, the “NI* @ 1%” value is 31 and the “NI* @ 3%” value was determined as 53.9. For `Cc1cc(Cl)ccc1SC1=NCCS1` [Cmpd. 7, 2-(4-Chloro-2-methylphenylthio)-2-thiazoline], the “NI* @ 1%” value was 25.7 and the “NI* @ 3%” value was determined as 48.8.

With `CCNC(=O)SC1=NCCS1` [Cmpd. 8, 2-(Ethylaminocarbonylthio)-2-thiazoline], the “NI* @ 3%” value worked out at 43.1.

In the case of `CCSC1=NCCS1` [Cmpd. 9, 2-(Ethylthio)-2-thiazoline], the “NI* @ 1%” value amounted to 22. Still for that read-out and setting: the value for `COC(=O)CSC1=NCCS1` [Cmpd. 10, (2-Thiazolin-2-ylthio)-acetic acid, methyl ester] was 21.5. Turning to `CN(C)C(=S)SC1NCCS1` (stereo not drawn) [Cmpd. 11, 4,5-dihydro-3H-thiazol-2-yl N,N-dimethylcarbamodithioate], the “NI* @ 1%” value turned out to be 31.2 and the “NI* @ 3%” value was 58.4.
